In ChEMBL document CHEMBL6121023, “Discovery of proteolytically stable monocyte locomotion inhibitory factor peptide through systematic structural optimization” (Eur J Med Chem, 2025):
Activity calls are given as the source filed them. The calls are words filed in the database; no cut-off is given here. Positions of bridges follow the written chain, without caps; N, C: chain ends. Non-standard residues stand in square brackets, D forms with d. Residues, ends and D or L forms follow the SMILES beside them. ξ: configuration not given here. *: point of attachment. Propanoyl(3-(MeO(CH2CH2O)2)) = COCCOCCOCCC(=O)*; X1 = COCCOCCOCCOCCOCCOCCOCCC(=O)*; NMeQ = CN[C@@H](CCC(N)=O)C(=O)O; NMeN = CN[C@@H](CC(N)=O)C(=O)O; X2 = COCCOCCOCCOCCOCCC(=O)*; NMeC = CN[C@@H](CS)C(=O)O; NMeS = CN[C@@H](CO)C(=O)O; Heptanoyl = CCCCCCC(=O)*; Orn = NCCC[C@H](N)C(=O)O; ξNMeM = CNC(CCSC)C(=O)O; Pentanoyl = CCCCC(=O)*; ξM = CSCCC(N)C(=O)O

Experiments:
[1] = Cytotoxicity against mouse RAW264.7 cells assessed as cell viability at 1 microg/ml measured after 24 hrs by CCK-8 assay; type: toxicity, cell-based; settings: at 1 µg/mL, read-out: Activity
[2] = test system: RAW264.7; experiment: Antiinflammatory activity in LPS-induced mouse RAW264.7 cells assessed as inhibition of IL-1beta expression at 1 microg/ml preincubated with compound for 24 hrs followed by LPS addition for 6 hrs by ELISA method; type: functional, cell-based; settings: dose 1.0 µg/ml, time 30.0 hrs
[3] = test system: RAW264.7; experiment: Antiinflammatory activity in LPS-induced mouse RAW264.7 cells assessed as inhibition of NO expression at 1 microg/ml preincubated with compound for 24 hrs followed by LPS addition for 6 hrs by DAF-FM diacetate probe based analysis; type: functional, cell-based; settings: dose 1.0 µg/ml, time 30.0 hrs
[4] = test system: RAW264.7; experiment: Antiinflammatory activity in LPS-induced mouse RAW264.7 cells assessed as […] in IL-1beta expression at 1 microg/ml preincubated with compound for 24 hrs followed by LPS addition for 6 hrs by ELISA method; type: functional, cell-based; settings: dose 1.0 µg/ml, time 30.0 hrs
[5] = test system: RAW264.7; experiment: Antiinflammatory activity in LPS-induced mouse RAW264.7 cells assessed as inhibition of TNF-alpha expression at 1 microg/ml preincubated with compound for 24 hrs followed by LPS addition for 6 hrs by ELISA method; type: functional, cell-based; settings: dose 1.0 µg/ml, time 30.0 hrs
[6] = test system: Mus musculus; experiment: Anti-inflammatory activity against collagenase-induced osteoarthritis C57BL/6J mouse model assessed as improvement in cartilage thickness at 1 mg/kg, ip measured on day 14 by H and E staining based analysis; type: functional, organism-based; settings: time 14.0 day
[7] = test system: RAW264.7; experiment: Antiinflammatory activity in LPS-induced mouse RAW264.7 cells assessed as inhibition of NO generation at 1 microg/ml preincubated with compound for 24 hrs followed by LPS addition for 6 hrs by DAF-FM diacetate probe based analysis; type: functional, cell-based; settings: dose 1.0 µg/ml
[8] = test system: RAW264.7; experiment: Antiinflammatory activity in LPS-induced mouse RAW264.7 cells assessed as effect on IL-1beta level at 1 microg/ml preincubated with compound for 24 hrs followed by LPS addition for 6 hrs by ELISA method; type: functional, cell-based; settings: dose 1.0 µg/ml, time 30.0 hrs
[9] = test system: RAW264.7; experiment: Antiinflammatory activity in LPS-induced mouse RAW264.7 cells assessed as effect on NO level at 1 microg/ml preincubated with compound for 24 hrs followed by LPS addition for 6 hrs by DAF-FM diacetate probe based analysis; type: functional, cell-based; settings: dose 1.0 µg/ml, time 30.0 hrs
[10] = test system: RAW264.7; experiment: Antiinflammatory activity in LPS-induced mouse RAW264.7 cells assessed as effect on TNF-alpha level at 1 microg/ml preincubated with compound for 24 hrs followed by LPS addition for 6 hrs by ELISA method; type: functional, cell-based; settings: dose 1.0 µg/ml, time 30.0 hrs
[11] = test system: RAW264.7; experiment: Antiinflammatory activity in LPS-induced mouse RAW264.7 cells assessed as reduction in IL-1beta activity at 1 microg/ml preincubated with compound for 24 hrs followed by LPS addition for 6 hrs by ELISA method; type: functional, cell-based; settings: dose 1.0 µg/ml, time 30.0 hrs
[12] = Stability in human serum measured upto 6 hrs by RP-HPLC analysis; type: ADME, cell-free
[13] = test system: Mus musculus; experiment: Anti-inflammatory activity against collagenase-induced osteoarthritis C57BL/6J mouse model assessed as reduction in mankin score in articular cartilage at 1 mg/kg, ip measured on day 14; type: functional, organism-based; settings: time 14.0 day

Row | Compound | viability at 24 h, 1 microg/ml [1] | Activity [2] | Activity [4] | Activity [5] | also measured
1 | CSCC[C@@H](N)C(=O)N[C@H]1CC(=O)NCCC[C@@H](C(=O)N[C@@H](CO)C(N)=O)NC(=O)[C@H](CS)NC1=O | ~80% | inactive | – | – | –
2 | CSCC[C@H](N)C(=O)N[C@H](CCC(N)=O)C(=O)N[C@@H](CS)C(=O)N[C@@H](CC(N)=O)C(=O)N[C@@H](CO)C(N)=O | ~80% | – | inactive | Active | Activity [3]: Active
3 | CSCCC(N)C(=O)N(C)[C@@H](CCC(N)=O)C(=O)N[C@@H](CS)C(=O)N[C@@H](CC(N)=O)C(=O)N[C@@H](CO)C(N)=O (some centres undefined) (H-[ξM][NMeQ]CNS-NH2) | 82.9% | – | Active | Active | Activity [6]: Active; Activity [7]: Active
4 | CCCCCCC(=O)N[C@@H](CCSC)C(=O)N[C@@H](CCC(N)=O)C(=O)N[C@@H](CS)C(=O)N[C@@H](CC(N)=O)C(=O)N[C@@H](CO)C(N)=O (Heptanoyl-MQCNS-NH2) | ~80% | Active | – | – | Activity [8]: Active; Activity [9]: Active; Activity [10]: Active
5 | CSCC[C@H](N)C(=O)N[C@@H](CCC(N)=O)C(=O)N[C@H](CS)C(=O)N[C@@H](CC(N)=O)C(=O)N[C@@H](CO)C(N)=O | ~80% | Active | – | Active | Activity [3]: Active
6 | CNC(CCSC)C(=O)N[C@@H](CCC(N)=O)C(=O)N[C@@H](CS)C(=O)N[C@@H](CC(N)=O)C(=O)N[C@@H](CO)C(N)=O (some centres undefined) (H-[ξNMeM]QCNS-NH2) | ~80% | – | Active | Active | Activity [7]: inactive
7 | CSCCC(N)C(=O)N[C@@H](CCC(N)=O)C(=O)N[C@@H](CS)C(=O)N(C)[C@@H](CC(N)=O)C(=O)N[C@@H](CO)C(N)=O (some centres undefined) (H-[ξM]QC[NMeN]S-NH2) | ~80% | – | Active | Active | Activity [7]: inactive
8 | COCCOCCOCCOCCOCCC(=O)N[C@@H](CCSC)C(=O)N[C@@H](CCC(N)=O)C(=O)N[C@@H](CS)C(=O)N[C@@H](CC(N)=O)C(=O)N[C@@H](CO)C(N)=O (X2-MQCNS-NH2) | ~80% | – | – | – | Activity [11]: Active; Activity [8]: Active; Activity [9]: Active; Activity [10]: Active
9 | CSCC[C@H](N)C(=O)N[C@@H](CCC(N)=O)C(=O)N[C@@H](CS)C(=O)N[C@@H](CC(N)=O)C(=O)N[C@@H](CO)C(N)=O | 82.2% | Active | – | Active | Stability [12]: Stable; Activity [13]: Active; Activity [6]: Active; Activity [7]: Active
10 | CSCC[C@H](N)C(=O)N[C@H]1CCC(=O)NCCC[C@@H](C(=O)N[C@@H](CO)C(N)=O)NC(=O)[C@H](CS)NC1=O (H-MEC[Orn]S-NH2; lactam 2-4) | ~80% | inactive | – | – | –
11 | COCCOCCOCCC(=O)N[C@@H](CCSC)C(=O)N[C@@H](CCC(N)=O)C(=O)N[C@@H](CS)C(=O)N[C@@H](CC(N)=O)C(=O)N[C@@H](CO)C(N)=O ({Propanoyl(3-(MeO(CH2CH2O)2))}-MQCNS-NH2) | ~80% | – | – | – | Activity [11]: Active; Activity [8]: Active; Activity [9]: Active; Activity [10]: Active
12 | COCCOCCOCCSC[C@@H](NC(=O)[C@@H](CCC(N)=O)NC(=O)[C@H](N)CCSC)C(=O)N[C@H](CC(N)=O)C(=O)N[C@H](CO)C(N)=O | ~80% | – | Active | Active | –
13 | COCCOCCOCCOCCOCCOCCOCCSC[C@@H](NC(=O)[C@@H](CCC(N)=O)NC(=O)[C@H](N)CCSC)C(=O)N[C@H](CC(N)=O)C(=O)N[C@H](CO)C(N)=O | 88.8% | – | Active | Active | Activity [6]: Active; Activity [7]: Active
14 | CSCC[C@H](N)C(=O)N[C@H]1CCCNC(=O)CC[C@@H](C(=O)N[C@@H](CO)C(N)=O)NC(=O)[C@H](CS)NC1=O (H-M[Orn]CES-NH2; lactam 2-4) | 81.9% | Active | – | – | Activity [6]: Active
15 | COCCOCCOCCOCCOCCOCCOCCC(=O)N[C@@H](CCSC)C(=O)N[C@@H](CCC(N)=O)C(=O)N[C@@H](CS)C(=O)N[C@@H](CC(N)=O)C(=O)N[C@@H](CO)C(N)=O (X1-MQCNS-NH2) | ~80% | Active | – | – | Activity [8]: Active; Activity [9]: Active; Activity [10]: Active
16 | CSCC[C@@H](N)C(=O)N[C@H]1CC(=O)NCCCC[C@@H](C(=O)N[C@@H](CO)C(N)=O)NC(=O)[C@H](CS)NC1=O | ~80% | inactive | – | – | –
17 | CSCC[C@H](N)C(=O)N[C@@H](CCC(N)=O)C(=O)N[C@@H](CS)C(=O)N[C@H](CC(N)=O)C(=O)N[C@@H](CO)C(N)=O | ~80% | – | inactive | Active | Activity [3]: Active
18 | CSCC[C@H](N)C(=O)N[C@H]1CCCCNC(=O)C[C@@H](C(=O)N[C@@H](CO)C(N)=O)NC(=O)[C@H](CS)NC1=O (H-MKCDS-NH2; lactam 2-4) | ~80% | Active | – | inactive | –
19 | COCCOCCOCCOCCOCCSC[C@@H](NC(=O)[C@@H](CCC(N)=O)NC(=O)[C@H](N)CCSC)C(=O)N[C@H](CC(N)=O)C(=O)N[C@H](CO)C(N)=O | ~80% | – | Active | Active | –
20 | CSCC[C@H](N)C(=O)N[C@@H](CCC(N)=O)C(=O)N[C@@H](CS)C(=O)N[C@@H](CC(N)=O)C(=O)N[C@H](CO)C(N)=O | ~80% | – | inactive | Active | Activity [3]: Active
21 | CSCCC(N)C(=O)N[C@@H](CCC(N)=O)C(=O)N(C)[C@@H](CS)C(=O)N[C@@H](CC(N)=O)C(=O)N[C@@H](CO)C(N)=O (some centres undefined) (H-[ξM]Q[NMeC]NS-NH2) | ~80% | – | Active | Active | Activity [7]: inactive
22 | CSCC[C@H](NC(C)=O)C(=O)N[C@@H](CCC(N)=O)C(=O)N[C@@H](CS)C(=O)N[C@@H](CC(N)=O)C(=O)N[C@@H](CO)C(N)=O (Ac-MQCNS-NH2) | ~80% | Active | – | – | Activity [8]: Active; Activity [9]: Active; Activity [10]: Active
23 | CSCC[C@H](N)C(=O)N[C@H]1CCCCNC(=O)CC[C@@H](C(=O)N[C@@H](CO)C(N)=O)NC(=O)[C@H](CS)NC1=O (H-MKCES-NH2; lactam 2-4) | ~80% | Active | – | – | Activity [7]: inactive
24 | CSCC[C@H](N)C(=O)N[C@H]1CCC(=O)NCCCC[C@@H](C(=O)N[C@@H](CO)C(N)=O)NC(=O)[C@H](CS)NC1=O (H-MECKS-NH2; lactam 2-4) | ~80% | inactive | – | – | –
25 | CCCCC(=O)N[C@@H](CCSC)C(=O)N[C@@H](CCC(N)=O)C(=O)N[C@@H](CS)C(=O)N[C@@H](CC(N)=O)C(=O)N[C@@H](CO)C(N)=O (Pentanoyl-MQCNS-NH2) | ~80% | Active | – | – | Activity [8]: Active; Activity [9]: Active; Activity [10]: Active
26 | CSCC[C@H](N)C(=O)N[C@H]1CCCNC(=O)C[C@@H](C(=O)N[C@@H](CO)C(N)=O)NC(=O)[C@H](CS)NC1=O (H-M[Orn]CDS-NH2; lactam 2-4) | ~80% | Active | – | – | –
27 | CSCC[C@@H](N)C(=O)N[C@@H](CCC(N)=O)C(=O)N[C@@H](CS)C(=O)N[C@@H](CC(N)=O)C(=O)N[C@@H](CO)C(N)=O | 86.8% | Active | – | Active | Activity [3]: Active; Activity [6]: Active
28 | CSCCC(N)C(=O)N[C@@H](CCC(N)=O)C(=O)N[C@@H](CS)C(=O)N[C@@H](CC(N)=O)C(=O)N(C)[C@@H](CO)C(N)=O (some centres undefined) (H-[ξM]QCN[NMeS]-NH2) | ~80% | – | Active | Active | Activity [7]: inactive
